Calls of active or inactive are those of the source.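 Rule for the calls: active = compounds giving half or more protection of infected cells from virus-caused growth loss, again on retest; inactive = the rest.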
System: CEM cells HIV-1 protection, formazan growth assay
Assay: NCI AIDS Antiviral Assay
Conditions: for IC50: measured here: growth of uninfected CEM cells
Method in brief: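 Human CEM cells, uninfected and HIV-1-infected, received five drug concentrations, and growth was read by soluble formazan assay. Compounds giving at least 50% protection were retested; reproducible 100% protection defined confirmed active.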

Compound	outcome	EC50 [µM]	IC50 [µM]
COc1ccc(N=Nc2c(N)nn3cc4c(nc23)CCC4)cc1	inactive		
CN(/N=C/c1ccc(Cl)cc1)C1=NCCCCN1		> 200	87.1
CC(=O)NNc1nc(C)c(C(=O)NNC(=O)C(=O)Nc2c([N+](=O)[O-])ccc(C)c2C)s1		> 209	107
O=C(O)C(CS)NCc1c2ccccc2nc2ccccc12 (configuration not stated)	inactive		
O=C(O)C1Cc2[nH]c3ccccc3c2C2CCCC12 (configuration not stated)		> 708	363
CSCCOC(=O)c1cc(NC(=S)c2ccoc2C)ccc1Cl		0.0182	19.5
O=C(OC1CCCCC1)c1cc(NC(=S)c2ccsc2)ccc1Cl		0.141	11.2
NC(N)=NS(=O)(=O)c1ccc(NNc2c3ccccc3nc3ccccc23)cc1		> 200	1.07
CCOC(=O)c1cc2nc3ccccc3c(=O)n2c2ccccc12		> 200	> 200
OC1C2[C@@H](O)CCN2CC[C@H]1O (some centres not stated)		> 759	> 759
CCCCCCC(C)CCCCCCCCCCC(=O)O (configuration not stated)	inactive		
Cc1ccc(C)c2c1CC(Cc1ccccc1C(=O)O)C2=O (configuration not stated)		> 200	158
COC(=O)NC1C(C)OC(OC2C/C=C(/C)C3C=CC4C(OC5CC(OC6CCC(OC7CC(O)C(OC8CCC(O)C(C)O8)C(C)O7)C(C)O6)C(OC(C)=O)C(C)O5)C(C)CC(C)C4C3(C)/C(O)=C3/C(=O)OC4(CC(C=O)=CC(O)C4/C=C\2C)C3=O)CC1(C)[N+](=O)[O-] (configuration not stated)		> 186	0.191
O=C(c1ccco1)N(C(=S)N1CCN(c2ccccc2)CC1)C1CCCCC1		> 18.2	12.6
COc1cc(Nc2cnc3cc(F)c(F)cc3n2)cc(OC)c1		> 200	> 200
COc1ccc(OC(C)C(=O)O)c2c1CCCC2=O (configuration not stated)	inactive		
CN(C)CCN(C)c1ccc2c(=O)n(CCN(C)C)c(=O)n3c4ccccc4c(=O)c1c23		> 0.2	0.11
N#C/C(=C1\SC(N=Nc2ccccc2)C(=O)N1c1ccccc1)c1nc2ccccc2[nH]1 (configuration not stated)		> 6.03	> 6.03
CCC1NC2CC3(C(=O)N(OC)c4ccccc43)C3CC1C2CO3 (configuration not stated)		> 269	> 269
COc1ccccc1NC(=O)C(=O)Cc1cnc2ccccc2n1		> 209	138
BrCC[P+](c1ccccc1)(c1ccccc1)c1ccccc1		> 200	3.98
C=C(C)C1CC2=C(C(=O)OC)C=C(O2)C(C(=C)C)[C@@H]2OC(=O)/C(=C\C1O)[C@H]2N(C)C (some centres not stated)		> 20	5.01

Compound	outcome	EC50 [µM]	IC50 [µM]
O=C(CNc1ccccn1)Nn1cnc2ccc(S(=O)(=O)Nc3ccccn3)cc2c1=O		> 200	> 200
Cc1cc(NS(=O)(=O)c2ccc(NC(NC(=O)OC(C)C)(C(F)(F)F)C(F)(F)F)cc2)nc(C)n1		> 200	> 200
COc1ccc2c(c1)-c1nc(=S)n(CCCN(C)C)c3ccc([N+](=O)[O-])c(c13)N2		> 2	0.389
O=C(Nc1c(Cl)cc([N+](=O)[O-])cc1Cl)C(=O)C1C(=O)NC(=S)NC1=O		> 89.1	> 89.1
CCOc1ncn(-c2ccc(NC(=S)Nc3ncccn3)cc2)n1		> 200	95.5
COc1cc(/C=C2\CC(C)C/C(=C\c3ccc(O)c(OC)c3)C2=O)ccc1O (configuration not stated)		> 200	3.39
O=C1/C(=C/c2ccccc2)CCC/C1=C\c1ccccc1		> 200	8.13
NNC(=O)CCCCCCCC(=O)O		> 200	> 200
COc1ccc(C2ON(c3ccccc3)CC=C2C)cc1 (configuration not stated)		> 35.5	> 35.5
N#CC1(Cc2ccccc2[N+](=O)[O-])c2ccccc2C2C(N1C(=O)c1ccccc1)C2(Cl)Cl (configuration not stated)	inactive		
O=C1Nc2ccccc2C1(O)C/C(=N/O)c1ccc2ccccc2c1 (configuration not stated)		> 107	> 107
Cc1ccc(NC(=O)/C(=N/N(C)C)C(C2OC(=O)c3ccccc32)[N+](=O)[O-])cc1 (configuration not stated)		> 47.9	> 47.9
O=C(O)c1ccccc1/C=C1/Cc2ccc3c(c2C1=O)CCC3	inactive		
O=C(Nc1ccccc1)c1nn(-c2cc(S(=O)(=O)O)c([N+](=O)[O-])cc2Cl)[n+](-c2cc(S(=O)(=O)[O-])c([N+](=O)[O-])cc2Cl)n1		64.6	> 100
CC1(CO)CCC(n2ccc(N)nc2=O)O1 (configuration not stated)		30.9	> 200
CCOC(=O)C1(C#N)C(=O)c2cc[n+](CC[n+]3ccc4c(c3)C(=O)C(C#N)(C(=O)OCC)C4=O)cc2C1=O (configuration not stated)		> 200	107
COC(=O)c1ccc(N2CCOS(=O)OCC2)cc1OC(=O)c1ccccc1		> 200	33.1
CCCC[C@@H]1CCN2C[C@@H](O)[C@@H](O)[C@H]2[C@@H]1O		> 200	> 200
O=[N+]([O-])/C=C/c1cn(CCCCCCCCn2cc(/C=C/[N+](=O)[O-])c3ccccc32)c2ccccc12		> 200	35.5
Nn1ccc(=O)c2c1-c1ccccc1C(c1ccccc1)c1ccccc1-2 (configuration not stated)		> 200	24
Cc1cccc(C)c1NC(=O)CCCC(=O)C(C#N)c1ccc(Cl)cc1 (configuration not stated)		> 135	> 135
CC(C)(C1=NC(C(C)(C)C)CO1)C1=N[C@@H](C(C)(C)C)CO1 (some centres not stated)		> 251	> 251

Compound	outcome	EC50 [µM]	IC50 [µM]
CCOC1=C2C(C)(CCC3[C@@]4(C)C=CC(=O)C(C)(C)C4CC(O)[C@@]23C)C(c2ccoc2)C1=O (some centres not stated)		> 79.4	17.8
O=C1CSC(=S)N1c1ccc(Cl)cc1		> 148	56.2
COC(=O)/C(=N\NC(C)(C)C)C(C(=O)OC)C(=O)C(=O)Nc1cc(Cl)ccc1Cl (configuration not stated)	inactive		
CC1=NN(C(=O)Cc2ccccc2)C(=O)/C1=C\c1ccc(O)cc1		> 16.2	> 16.2
O=C1CC(C[C@H](O)C2CCCCC2O)CC(=O)N1Cc1ccccc1 (some centres not stated)		> 200	> 200
Nc1nc(NC(=O)C2=NS(=O)(=O)c3cc(S(N)(=O)=O)c(Cl)cc3N2)n[nH]1		331	380
CN1CCC(SC2Cc3cc(Cl)ccc3Sc3ccccc32)CC1 (configuration not stated)		> 69.2	12
NC(CSCCSCCSCC(N)C(=O)O)C(=O)O (configuration not stated)		> 56.2	> 56.2
OCCN1CC2CCCC1O2 (configuration not stated)		> 1580	> 1580
CC(C)(C)OC(=O)C1/C(=C/CO)CN1C(=O)OC(C)(C)C (configuration not stated)		> 200	43.7
O=C1/C(=C/c2cccc(Br)c2)CCc2ccccc21		> 200	7.24
O=C1CN(CCO)CC(=O)N2Cc3ccccc3CN12	inactive		
COc1ccc2c(C(=O)O)cc3ccccc3c2c1OC	inactive		
[Br][Ni][Br].[NH-]CC[NH-].[NH-]CC[NH-]		> 200	67.6
CC(C)(C)C1CCC(O)(c2ccccc2)CC1 (configuration not stated)		> 42.7	> 42.7
C1CC2=C(C1)C1=S(S2)SC2=C1CCC2	inactive		
CCOC(=O)C1(O)N=C(c2ccccc2)c2ccccc2-n2cccc21 (configuration not stated)		> 200	> 200
Brc1ccccc1C1SCc2nc3ncccc3n21 (configuration not stated)		> 77.6	> 77.6
CCN(CC)CCN1C(=O)C2C3C=CC(C2C1=O)C1C2C(=O)N(CCN(CC)CC)C(=O)C2C31 (configuration not stated)		> 200	> 200
CC1OC(OCC2OC(Oc3ccc(C4CC(=O)c5c(O)cc(O)cc5O4)cc3O)C(O)C(O)C2O)C(O)C(O)C1O (configuration not stated)		> 200	> 200
COC(=O)C1=CC(=O)OC1(OO)c1ccccc1 (configuration not stated)		> 200	45.7
O=C(NCCc1c(-c2ccccc2)[nH]c2ccccc12)C(F)(F)C(F)(F)F		> 200	25.7

Compound	outcome	EC50 [µM]	IC50 [µM]
CC1=Nc2nc(Cl)cn2C(=O)C1(Cl)Cl		> 200	33.1
Cc1ccc(N2C(=O)C3c4[nH]c5ccccc5c4C4CCC(C(C)(C)C)CC4C3C2=O)cc1 (configuration not stated)		> 200	35.5
COc1ccc(N/C=C/C2=[N+](C)c3ccccc3C2(C)C)c(OC)c1		> 479	38.9
Cc1[nH]nc2c1NC(=O)OC(C)(C)C2		> 479	> 479
CN1C(=O)/C(=N\n2c(-c3ccccc3)nc3ccccc3c2=O)c2ccccc21		> 200	> 200
O=C(O)C(SSC(C(=O)O)(c1ccccc1)c1ccccc1)(c1ccccc1)c1ccccc1		> 200	89.1
C[C@H](CCC(=O)O)[C@H]1CC[C@H]2[C@@H]3C(=O)C[C@@H]4C[C@H](O)CC[C@]4(C)[C@H]3C[C@H](O)[C@]12C		> 200	> 200
COc1ccc(C(CC(=O)C(C)(C)CN2CCCCC2)SCCS(=O)(=O)O)cc1 (configuration not stated)		> 200	13.2
CC[C@@]1(O)C(=O)OCc2c1cc1n(c2=O)Cc2c-1nc1ccccc1c2Cl		> 10	0.0331
COc1ccc(-c2c(C#N)c(S)n(C3OC(COC(C)=O)C(OC(C)=O)C(OC(C)=O)C3OC(C)=O)c(=O)c2C#N)cc1 (configuration not stated)		> 200	> 200
C[C@@H]1CC(O)C2(O)[C@@]13C[C@@H](OC(=O)[C@@H]3O)[C@](C)(O)[C@@]21COC1=O (some centres not stated)	inactive		
COc1cccc2c1C(=O)c1c(O)c3c(c(O)c1C2=O)C[C@@](O)(/C(C)=N/NC(=O)c1ccccc1)C[C@@H]3OC1CC(N)C(O)C(C)O1 (some centres not stated)		> 50.1	0.0158
Cc1cc(NS(=O)(=O)c2ccc(NC(=O)COC(=O)c3cccc4c(=O)c5ccccc5[nH]c34)cc2)no1	inactive		
Cc1ccccc1-n1c(N)c(-c2nc3ccccc3[nH]2)sc1=S		> 4.27	> 4.27
O=S(=O)(/C=C/C=C/S(=O)(=O)c1ccccc1)c1ccccc1		> 2	0.251
CCOC(=O)Cc1csc(N=Nc2c(O)[nH]c3ccccc23)n1		> 200	110
CC(=O)Oc1ccc2cc(-c3ccc(OC(C)=O)c(OC(C)=O)c3)c(=O)oc2c1		> 200	64.6
CCOC(=O)N/N=C/c1cccs1		> 200	> 200
CC1C(=O)CC[C@@]2(C)C(=O)CCCC12O (some centres not stated)	inactive		

From PubChem BioAssay AID179 (DTP/NCI, 2004)
